Measured values reported in US20210283109A1, “HETEROCYCLIC DIAMIDINES” (Friedrich-Alexander-Universität Erlangen-Nürnberg, priority 2016, published 2021).

Key:
[1] = tested on: Dermal fibroblasts from patients with SSc; experiment: Formazan toxicity assay of fibroblasts; format: cell-based, human; settings: dermal fibroblasts from SSc patients cultured with different concentrations of compound
Experimental: (§1) Dermal fibroblasts from patients with SSc were cultured in the presence of DB1976. […] Moreover, in the presence of DB1976 differentiation of fibroblasts into matrix-producing myofibroblasts is inhibited (FIG. 3C). Bleomycin induced skin fibrosis was induced by local injections of bleomycin in C57Bl/6 mice (10 weeks of age, mixed genders) for four weeks. Subcutaneous injections of 0.9% NaCl served as a control. DB1976 was administered into tail vein every second day in different concentrations (1 mg/kg body weight; 5 mg/kg body weight) after first application of bleomycin. […] Bleomycin-induced pulmonary fibrosis was induced by a single intratracheal application of bleomycin in C57Bl/6 mice (12 weeks of age, males) using a high pressure syringe (Penn-Century, Wyndmoor, Pa., USA). […]
(§2) (A) Formazan toxicity assay of fibroblasts incubated with different concentrations of DB1976 as indicated; (B) human diseased dermal fibroblasts untreated or stimulated with either TGF-β alone or TGF-β plus DB1976; collagen protein level and mRNA level of col1a1 relative to control. […] (C) Immune fluorescence microscopy of cultured fibroblasts as indicated; cells are stained with DAPI, alpha smooth muscle actin (αSMA) and stress fibers. Representative image of 5 independent experiments are shown. *p<0.05 determined by Student's t test according pretest for normality (D'Agostino-Pearson normality test).

[2] = tested on: human diseased dermal fibroblasts; experiment: Collagen release from fibroblasts after stimulation with TGF-β; format: cell-based; settings: compared to TGF-β alone
Experimental: as §1
as §2, with “test). […]” for “test).”

[3] = tested on: Dermal fibroblasts from patients with SSc; experiment: Differentiation of fibroblasts into matrix-producing myofibroblasts (αSMA, stress fibers, immune fluorescence microscopy); format: cell-based, human; settings: in the presence of compound
Experimental: as §1, §2

[4] = tested on: Bleomycin induced skin fibrosis in C57Bl/6 mice; experiment: Bleomycin induced skin fibrosis model; format: in vivo; settings: tail vein every second day, 1 and 5 mg/kg body weight, bleomycin four weeks; concentration dependent
Experimental: (§3) Dermal fibroblasts from patients with SSc were cultured in the presence of DB1976. […] Moreover, in the presence of DB1976 differentiation of fibroblasts into matrix-producing myofibroblasts is inhibited (FIG. 3C). Bleomycin induced skin fibrosis was induced by local injections of bleomycin in C57Bl/6 mice (10 weeks of age, mixed genders) for four weeks. Subcutaneous injections of 0.9% NaCl served as a control. DB1976 was administered into tail vein every second day in different concentrations (1 mg/kg body weight; 5 mg/kg body weight) after first application of bleomycin. […] Bleomycin-induced pulmonary fibrosis was induced by a single intratracheal application of bleomycin in C57Bl/6 mice (12 weeks of age, males) using a high pressure syringe (Penn-Century, Wyndmoor, Pa., USA). Instillation of equal volumes of 0.9% NaCl served as a control. […] Carbon tetrachloride CCl4-induced hepatic fibrosis was induced by intraperitoneal (i.p.) injections of CCl4 in […] mice (14 weeks of age, mixed genders) (Palumbo-Zerr et al. Nature Medicine 21, 150-158 (2015)) twice weekly. […] DB1976 was also effective when initiated after fibrosis had already become manifest. In those experiments, mice were pre-challenged with bleomycin for 3 weeks to induce robust skin fibrosis. After 3 weeks, treatment with DB1976 was initiated, while injections with bleomycin were continued. […] Therapeutic application of DB1976 ameliorated skin thickness, collagen content and myofibroblast counts in the skin (FIG. 6A-F).
FIG. 4: Model of bleomycin induced skin fibrosis. (A) Representative images of trichrome staining of skin tissue from control mice (Wild-type (WT) treated with sodium chloride; n≥7), bleomycin treated mice (n=10) and mice treated with bleomycin and different concentrations of DB1976 (n≥8 each); (B;C) mRNA collagen1a1 or collagen1a2 expression; (D) dermal thickness; (E) quantification of α-smooth muscle actin-positive myofibroblasts; (F) hydroxyproline content.

[5] = tested on: Bleomycin-induced pulmonary fibrosis in C57Bl/6 mice; experiment: Bleomycin-induced pulmonary fibrosis model; format: in vivo; settings: lung; compared to mice that received bleomycin without compound
Experimental: as §3
(§4) FIG. 5: Model of bleomycin induced lung and CCI-4 induced liver fibrosis. (A) Representative images of sirius red staining of lung tissue from control mice (Wild-type (WT) treated with sodium chloride; n=4), bleomycin treated mice (n≥7) and mice treated with bleomycin and DB1976 (n=≥5); (B) quantification of the fibrotic area; (C, D) mRNA expression level of col1a1 and col1a2; (E) hydroxyproline content.

[6] = tested on: CCl4-induced hepatic fibrosis in mice; experiment: Carbon tetrachloride CCl4-induced hepatic fibrosis model; format: in vivo; settings: CCl4 i.p. twice weekly
Experimental: as §3, §4

[7] = tested on: pre-established bleomycin induced skin fibrosis in mice; experiment: Regression of pre-established bleomycin induced skin fibrosis; format: in vivo; settings: 6 weeks of bleomycin, treatment for the last 3 weeks
Experimental: as §3
FIG. 6: Regression of pre-established bleomycin induced skin fibrosis by treatment with DB1976. Mice were pre-challenged with bleomycin for 3 weeks to induce robust skin fibrosis. After 3 weeks, treatment with DB1976 was initiated, while injections with bleomycin were continued. After a total of 6 weeks of bleomycin and 3 weeks of treatment with DB1976, the extent of fibrosis was assessed. (A) Representative images of trichrome staining of skin tissue from control mice (Wild-type (WT) treated with sodium chloride; n≥4), 3 weeks bleomycin and afterwards 3 weeks sodium chloride treated mice (n≥8), bleomycin treated mice (n≥8) and mice treated with bleomycin and different concentrations of DB1976 (n≥3 each); (B;C) mRNA expression level of col1a1 and col1a2; (D) dermal thickness; (E) quantification of α-smooth muscle actin-positive myofibroblasts; (F) hydroxyproline content.

mice = experiment: Tolerability of treatment in mice; format: in vivo
Experimental: Dermal fibroblasts from patients with SSc were cultured in the presence of DB1976. […] Moreover, in the presence of DB1976 differentiation of fibroblasts into matrix-producing myofibroblasts is inhibited (FIG. 3C). Bleomycin induced skin fibrosis was induced by local injections of bleomycin in C57Bl/6 mice (10 weeks of age, mixed genders) for four weeks. Subcutaneous injections of 0.9% NaCl served as a control. DB1976 was administered into tail vein every second day in different concentrations (1 mg/kg body weight; 5 mg/kg body weight) after first application of bleomycin. […] Bleomycin-induced pulmonary fibrosis was induced by a single intratracheal application of bleomycin in C57Bl/6 mice (12 weeks of age, males) using a high pressure syringe (Penn-Century, Wyndmoor, Pa., USA). Instillation of equal volumes of 0.9% NaCl served as a control. […] Carbon tetrachloride CCl4-induced hepatic fibrosis was induced by intraperitoneal (i.p.) injections of CCl4 in […] mice (14 weeks of age, mixed genders) (Palumbo-Zerr et al. Nature Medicine 21, 150-158 (2015)) twice weekly. […] DB1976 was also effective when initiated after fibrosis had already become manifest. In those experiments, mice were pre-challenged with bleomycin for 3 weeks to induce robust skin fibrosis. After 3 weeks, treatment with DB1976 was initiated, while injections with bleomycin were continued. […]

apoptosis = experiment: Apoptosis by staining for cleaved caspase-3 or TUNEL assays
[8] = tested on: Cancer associated fibroblasts (CAFs); experiment: Matrix production of cancer associated fibroblasts activated by TGF-β; format: cell-based, human; settings: cultured with compound for 96 h, compared to CAFs without compound
Excerpt: Cancer associated fibroblasts (CAFs) are associated with cancer cells at all stages of cancer progression, and their structural and functional contributions to this process are well known. This implies that CAFs have a prominent role in the progression, growth and spread of cancers and represent an important target for cancer therapies.
FIG. 7: DB1976 inhibits collagen production of cancer associated fibroblasts (CAFs). (A) Quantification of PU.1-expressing fibroblasts in healthy colon tissue compared to tumor tissue (colorectal carcinoma). Cells are counted per high power field (HPF). (B) collagen production of CAFs assessed by western blot analysis; PU.1, collagen and β-actin expression in response to stimulation w/o TGF-β in the presence and absence of DB1976; representative blots of 6 independent experiments are shown. […] (C) Immune fluorescence microscopy of fibroblasts from healthy tissue (HC) and CAFs cultured w/o DB1976; DAPI and alpha smooth muscle actin (αSMA) are stained. Representative images of 5 independent experiments are shown. *p<0.05; **p<0.01 determined by Mann-Whitney U-test for non-parametric data.

PU.1 = settings: cited from earlier work

For `N=C(N)c1ccc2nc(-c3ccc(-c4nc5ccc(C(=N)N)cc5[nH]4)[se]3)[nH]c2c1` [DB1976], the “toxic effects in formazan toxicity assays” value [1] was “did not observe toxic effects”, the “collagen release from fibroblasts” value [2] was “strong reduction” and the “differentiation of fibroblasts into matrix-producing myofibroblasts” value [3] was “inhibited”. The “collagen release assessed by col1a2 mRNA expression” value [4] was “significantly decreased”, the “collagen release assessed by hydroxyproline content of the skin” value [4] was “significantly decreased” and the myofibroblast differentiation [4] was “significantly decreased”. For the same molecule, the skin thickening [4] was “significantly decreased”, the Ashcroft score [5] was “reduced” and the “collagen expression (hydroxyproline content)” value [5] was “decreased”. For the same molecule, the “collagen expression (mRNA)” value [5] was “decreased”, the myofibroblast count [5] was “decreased” and the “volume of fibrotic area” value [5] was “decreased”. For the same molecule, the “fibrotic tissue remodeling of the liver” value [6] was “significant less”, the collagen production ([6]; liver) was “less” and the myofibroblast differentiation ([6]; liver) was “less”. The “collagen content in the skin” value [7] was “ameliorated”, the “myofibroblast counts in the skin” value [7] was “ameliorated” and the skin thickness [7] was “ameliorated”. For the same molecule, the extent of fibrosis ([7]; compared to controls) was “significantly reduced”, the “clinical evidence of toxicity” value (mice) was “no clinical evidence of toxicity” and the tolerability of treatment (mice) was “well-tolerated”. The “apoptosis by TUNEL assays” value (apoptosis) was “did not detect any evidence of apoptosis”, the “apoptosis in staining for cleaved caspase-3” value (apoptosis) was “did not detect any evidence of apoptosis” and the “alpha smooth muscle actin (αSMA)” value [8] was “significant reduction”. For the same molecule, the collagen production [8] was “significant reduction”, the stress fiber expression [8] was “significant reduction” and the “inhibition of PU.1-binding to the DNA of PU.1 target genes” value (PU.1) was “potent inhibitor”.
